These results are taken from patent publication US20050175695A1 (priority 2003, published 2005).

A short description of series [1]: pH-solubility behaviour of carvedilol free base. It counts as physicochemical. The note with it: pH values encountered in the distal small intestine and colon.
For series [2] the following is noted: both R and S isomer forms; cited from earlier work.
Series [3] can be described thus: Aqueous solubility at 25° C. of carvedilol free base and three salts (Table 13). It counts as physicochemical.
Source text: Aliquots were taken out at various time-point, filtered through 0.45 μm Acrodisc GHP filter.

Structures can show the parent of a compound that is named as a salt.

On to `COc1ccccc1OCCNCC(O)COc1cccc2[nH]c3ccccc3c12` (stereo not drawn) [Carvedilol Free Base], for which the solubility in series [1] was ≤ 0.1 mg per ml. Besides, the alpha elimination phase entry in series [2] is listed as “about 1.5 hours”.

Regarding `COc1ccccc1OCCNCC(O)COc1cccc2[nH]c3ccccc3c12` (stereo not drawn) [HBr salt, Carvedilol HBr], the “aqueous solubility compared with free base” value in series [3] is “much better aqueous solubility than the free base”.
